The results in this text go back to US7495027B2, “3-aryl-4-hydroxyfuranone compounds and the human and animal health use thereof” (Wyeth, priority 2003, dated 2009).

The data set deals with larvae of blowfly, Lucilia sericata. As to the kind of experiment: whole plant or invertebrate. The conditions noted are these: dose rate of 20 ppm, Lucilia sericata larvae on treated filter paper with bovine serum; for % Mortality 24 h: assessed at 24 h; for % Mortality 48 h: assessed at 48 h. On the procedure: Comparative Evaluation of the Efficacy of a 3-Aryl-4-hydroxyfuranone Compound Against Blowfly Larvae
In this evaluation, filter paper discs are treated with an acetone solution of test compound and allowed to dry. Bovine serum and newly emerged larvae of blowfly, Lucilia sericata, are added to the treated filter paper. Mortality is assessed at 24 h and 48 h. When more than one evaluation is performed, the data are averaged.

`N#Cc1ccc(-c2ccc(C=C3OC(=O)C(c4cccc(C(F)(F)F)c4)=C3O)cc2)cc1` (mixture of isomers): the “% Mortality 24 h” value was found to be 0% and the “% Mortality 48 h” value amounted to 0%.

For the compound `O=C1OC(=Cc2ccc(-c3ccc(Cl)cc3)cc2)C(O)=C1c1cccc(C(F)(F)F)c1` (mixture of isomers), the “% Mortality 24 h” value was found to be 0% and the “% Mortality 48 h” value is recorded as 0%.

In the case of `N#Cc1cccc(C2=C(O)C(=Cc3ccc(-c4ccc(Cl)cc4)cc3)OC2=O)c1` (mixture of isomers), the “% Mortality 24 h” value worked out at 0% and the “% Mortality 48 h” value is on record as 0%.

Consider `N#Cc1ccc(-c2ccc(C=C3OC(=O)C(c4cccc(Cl)c4)=C3O)cc2)cc1` (mixture of isomers), for which the “% Mortality 24 h” value was 0% and the “% Mortality 48 h” value stood at 0%.

Consider `O=C1OC(=Cc2ccc(-c3ccc(Cl)cc3)cc2)C(O)=C1c1cccc(Cl)c1` (mixture of isomers), for which the “% Mortality 24 h” value came to 0% and the “% Mortality 48 h” value was 0%.

For the compound `N#Cc1ccc(C2=C(O)C(=Cc3ccc(-c4ccc(C(F)(F)F)cc4)cc3)OC2=O)cc1` (mixture of isomers), the “% Mortality 24 h” value is 0% and the “% Mortality 48 h” value is listed as 25%.

As to `O=C1OC(=Cc2ccc(-c3ccc(C(F)(F)F)cc3)cc2)C(O)=C1c1ccc(Cl)cc1` (mixture of isomers), the “% Mortality 24 h” value turned out to be 0% and the “% Mortality 48 h” value was 0%.

For `O=C1OC(=Cc2ccc(C(F)(F)F)cc2)C(O)=C1c1ccc(-c2ccc(Cl)cc2)cc1` (mixture of isomers), the “% Mortality 24 h” value amounted to 0% and the “% Mortality 48 h” value came out at 0%.

For `N#Cc1ccc(C=C2OC(=O)C(c3ccc(-c4ccc(Cl)cc4)cc3)=C2O)cc1` (mixture of isomers), the “% Mortality 24 h” value came out at 0% and the “% Mortality 48 h” value was 0%.

Take `O=C1OC(=Cc2ccc(Cl)cc2)C(O)=C1c1ccc(-c2ccc(Cl)cc2)cc1` (mixture of isomers): the “% Mortality 24 h” value was found to be 0% and the “% Mortality 48 h” value came out at 0%.

Turning to `COC1=C(c2ccc(Cl)cc2)C(=O)OC1=Cc1ccc(C#N)cc1` (mixture of isomers) [R=CH3, R1=4-Cl—C6H4**, R2=4-CN—C6H4], the “% Mortality 24 h” value was determined as 0% and the “% Mortality 48 h” value was found to be 0%.

For `O=C1OC(=Cc2ccc(C(F)(F)F)cc2)C(O)=C1c1cccc(C(F)(F)F)c1` (mixture of isomers) [R=H, R1=3-CF3—C6H4**, R2=4-CF3—C6H4], the “% Mortality 24 h” value stood at 100% and the “% Mortality 48 h” value is 100%.

Turning to `N#Cc1ccc(C=C2OC(=O)C(c3cccc(C(F)(F)F)c3)=C2O)cc1` (mixture of isomers) [R=H, R1=3-CF3—C6H4**, R2=4-CN—C6H4], the “% Mortality 24 h” value amounted to 20% and the “% Mortality 48 h” value worked out at 20%.

Regarding `O=C1OC(=Cc2ccc(F)cc2)C(O)=C1c1cccc(C(F)(F)F)c1` (mixture of isomers) [R=H, R1=3-CF3—C6H4**, R2=4-F—C6H4], the “% Mortality 24 h” value came out at 100% and the “% Mortality 48 h” value is listed as 100%.

For `N#Cc1cccc(C2=C(O)C(=Cc3ccc(C(F)(F)F)cc3)OC2=O)c1` (mixture of isomers) [R=H, R1=3-CN—C6H4**, R2=4-CF3—C6H4], the “% Mortality 24 h” value is 0% and the “% Mortality 48 h” value is on record as 0%.

As for `N#Cc1ccc(C=C2OC(=O)C(c3cccc(C#N)c3)=C2O)cc1` (mixture of isomers) [R=H, R1=3-CN—C6H4**, R2=4-CN—C6H4], the “% Mortality 24 h” value is 0% and the “% Mortality 48 h” value amounted to 0%.

As to `N#Cc1cccc(C2=C(O)C(=Cc3ccc(Cl)cc3)OC2=O)c1` (mixture of isomers) [R=H, R1=3-CN—C6H4**, R2=4-Cl—C6H4], the “% Mortality 24 h” value came out at 0% and the “% Mortality 48 h” value was 0%.

Turning to `N#Cc1cccc(C2=C(O)C(=Cc3ccc(F)cc3)OC2=O)c1` (mixture of isomers) [R=H, R1=3-CN—C6H4**, R2=4-F—C6H4], the “% Mortality 24 h” value is recorded as 0% and the “% Mortality 48 h” value is recorded as 0%.

With `O=C1OC(=Cc2ccc(C(F)(F)F)cc2)C(O)=C1c1cccc(Cl)c1` (mixture of isomers) [R=H, R1=3-Cl—C6H4**, R2=4-CF3—C6H4], the “% Mortality 24 h” value worked out at 60% and the “% Mortality 48 h” value was found to be 75%.

With `N#Cc1ccc(C=C2OC(=O)C(c3cccc(Cl)c3)=C2O)cc1` (mixture of isomers) [R=H, R1=3-Cl—C6H4**, R2=4-CN—C6H4], the “% Mortality 24 h” value was 0% and the “% Mortality 48 h” value came to 0%.

In the case of `O=C1OC(=Cc2ccc(Cl)cc2)C(O)=C1c1cccc(Cl)c1` (mixture of isomers) [R=H, R1=3-Cl—C6H4**, R2=4-Cl—C6H4], the “% Mortality 24 h” value was 0% and the “% Mortality 48 h” value amounted to 0%.

As to `O=C1OC(=Cc2ccc(F)cc2)C(O)=C1c1cccc(Cl)c1` (mixture of isomers) [R=H, R1=3-Cl—C6H4**, R2=4-F—C6H4], the “% Mortality 24 h” value was 0% and the “% Mortality 48 h” value was 0%.

Take `O=C1OC(=Cc2ccc(C(F)(F)F)cc2)C(O)=C1c1ccc(C(F)(F)F)cc1` (mixture of isomers) [R=H, R1=4-CF3—C6H4**, R2=4-CF3—C6H4]: the “% Mortality 24 h” value was 100% and the “% Mortality 48 h” value is reported as 100%.

For `N#Cc1ccc(C=C2OC(=O)C(c3ccc(C(F)(F)F)cc3)=C2O)cc1` (mixture of isomers) [R=H, R1=4-CF3—C6H4**, R2=4-CN—C6H4], the “% Mortality 24 h” value came out at 100% and the “% Mortality 48 h” value is reported as 100%.

Turning to `O=C1OC(=Cc2ccc(Cl)cc2)C(O)=C1c1ccc(C(F)(F)F)cc1` (mixture of isomers) [R=H, R1=4-CF3—C6H4**, R2=4-Cl—C6H4], the “% Mortality 24 h” value was found to be 100% and the “% Mortality 48 h” value was 100%.

As to `O=C1OC(=Cc2ccc(F)cc2)C(O)=C1c1ccc(C(F)(F)F)cc1` (mixture of isomers) [R=H, R1=4-CF3—C6H4**, R2=4-F—C6H4], the “% Mortality 24 h” value is 100% and the “% Mortality 48 h” value came to 100%.

On to `N#Cc1ccc(C2=C(O)C(=Cc3cccc(C(F)(F)F)c3)OC2=O)cc1` (mixture of isomers) [R=H, R1=4-CN—C6H4**, R2=3-CF3—C6H4], for which the “% Mortality 24 h” value is reported as 0% and the “% Mortality 48 h” value is given as 90%.

`N#Cc1ccc(C2=C(O)C(=Cc3ccc(C(F)(F)F)cc3)OC2=O)cc1` (mixture of isomers) [R=H, R1=4-CN—C6H4**, R2=4-CF3—C6H4]: the “% Mortality 24 h” value was found to be 100% and the “% Mortality 48 h” value is on record as 100%.

Take `N#Cc1ccc(C=C2OC(=O)C(c3ccc(C#N)cc3)=C2O)cc1` (mixture of isomers) [R=H, R1=4-CN—C6H4**, R2=4-CN—C6H4]: the “% Mortality 24 h” value came to 40% and the “% Mortality 48 h” value was determined as 100%.

In the case of `N#Cc1ccc(C2=C(O)C(=Cc3ccc(Cl)cc3)OC2=O)cc1` (mixture of isomers) [R=H, R1=4-CN—C6H4**, R2=4-Cl—C6H4], the “% Mortality 24 h” value came to 25% and the “% Mortality 48 h” value stood at 100%.

`N#Cc1ccc(C2=C(O)C(=Cc3ccc(F)cc3)OC2=O)cc1` (mixture of isomers) [R=H, R1=4-CN—C6H4**, R2=4-F—C6H4]: the “% Mortality 24 h” value was determined as 0% and the “% Mortality 48 h” value is reported as 0%.

For the compound `O=C1OC(=Cc2ccccc2C(F)(F)F)C(O)=C1c1ccc(Cl)cc1` (mixture of isomers) [R=H, R1=4-Cl—C6H4**, R2=2-CF3—C6H4], the “% Mortality 24 h” value is 10% and the “% Mortality 48 h” value came to 10%.

As for `O=C1OC(=Cc2cccc(Cl)c2)C(O)=C1c1ccc(Cl)cc1` (mixture of isomers) [R=H, R1=4-Cl—C6H4**, R2=3-Cl—C6H4], the “% Mortality 24 h” value stood at 0% and the “% Mortality 48 h” value is given as 0%.

With `O=C1OC(=Cc2ccc(C(F)(F)F)cc2)C(O)=C1c1ccc(Cl)cc1` (mixture of isomers) [R=H, R1=4-Cl—C6H4**, R2=4-CF3—C6H4], the “% Mortality 24 h” value came out at 100% and the “% Mortality 48 h” value came out at 100%.

As for `N#Cc1ccc(C=C2OC(=O)C(c3ccc(Cl)cc3)=C2O)cc1` (mixture of isomers) [R=H, R1=4-Cl—C6H4**, R2=4-CN—C6H4], the “% Mortality 24 h” value came to 0% and the “% Mortality 48 h” value is recorded as 90%.

For the compound `O=C1OC(=Cc2ccc(F)cc2)C(O)=C1c1ccc(Cl)cc1` (mixture of isomers) [R=H, R1=4-Cl—C6H4**, R2=4-F—C6H4], the “% Mortality 24 h” value is 0% and the “% Mortality 48 h” value was 0%.

For `O=C1OC(=Cc2ccc(C(F)(F)F)cc2)C(O)=C1c1ccc(F)cc1` (mixture of isomers) [R=H, R1=4-F—C6H4**, R2=4-CF3—C6H4], the “% Mortality 24 h” value is on record as 0% and the “% Mortality 48 h” value is 0%.

Regarding `N#Cc1ccc(C=C2OC(=O)C(c3ccc(F)cc3)=C2O)cc1` (mixture of isomers) [R=H, R1=4-F—C6H4**, R2=4-CN—C6H4], the “% Mortality 24 h” value is recorded as 0% and the “% Mortality 48 h” value worked out at 0%.

`O=C1OC(=Cc2ccc(Cl)cc2)C(O)=C1c1ccc(F)cc1` (mixture of isomers) [R=H, R1=4-F—C6H4**, R2=4-Cl—C6H4]: the “% Mortality 24 h” value was determined as 0% and the “% Mortality 48 h” value is 0%.

Consider `O=C1OC(=Cc2ccc(F)cc2)C(O)=C1c1ccc(F)cc1` (mixture of isomers) [R=H, R1=4-F—C6H4**, R2=4-F—C6H4], for which the “% Mortality 24 h” value came out at 0% and the “% Mortality 48 h” value is on record as 0%.

Consider `COC1=C(c2cccc(C(F)(F)F)c2)C(=O)O/C1=C\c1ccccc1` [R=CH3, R1=3-CF3—C6H4, R2=C6H5], for which the “% Mortality 24 h” value amounted to 0% and the “% Mortality 48 h” value is listed as 0%.

Turning to `O=C1O/C(=C\c2ccc(-c3ccccc3)c(F)c2)C(O)=C1c1cccc(C(F)(F)F)c1` [R=H, R1=3-CF3—C6H4, R2=4-(3-F-biphenyl)], the “% Mortality 24 h” value came to 0% and the “% Mortality 48 h” value is 0%.
